Active and inactive are the calls of the source.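 The calls were made as follows: active = STAT1 reporter activators whose half-maximal activating concentration EC50 is 10 µM or lower; inactive = EC50 above 10 µM or no activation.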
System: NIH 3T3 STAT1 luciferase reporter, luminescence
Assay: STAT1 transcription enhancement, IFN-gamma induced – cell-based, NIH 3T3, luciferase luminescence, counter-screen for STAT3 activator project, dose response (AID 1406)
[1] = cells stimulated with IFN-gamma at EC80

SMILES | EC50 [1] | EC50
O=C(C1CCCN(S(=O)(=O)c2cccc3cccnc23)C1)N1CCc2ccccc21 (stereo not given) | > 55.7 µM (inactive) | 
Cc1c(C(=O)NCc2cccnc2)oc2ccc(S(=O)(=O)N3CC(C)CC(C)C3)cc12 (stereo not given) | > 55.7 µM (inactive) | 
COc1ccccc1C(=O)NNC(=S)Nc1ccccc1 | > 55.7 µM (inactive) | 
Nc1nc(-c2ccc(Cl)cc2)nn1C(=O)c1cccs1 | > 55.7 µM (inactive) | 
COc1ccc(C)cc1NC(=O)c1[nH]c(C)c(C(C)=O)c1C | > 55.7 µM (inactive) | 
N#Cc1cn(CC(=O)O)c2ccccc12 | > 55.7 µM (inactive) | 
COc1cc(NC(=O)c2cc(-c3ccco3)on2)c(OC)cc1Cl | > 55.7 µM (inactive) | 
Cc1nonc1CC(=O)N1CCc2c([nH]c3ccccc23)C1c1ccccc1F (stereo not given) | > 55.7 µM (inactive) | 
COc1ccccc1C(=O)Nc1cc(Cl)ccc1O | > 55.7 µM (inactive) | 
CCn1c(C(=O)Nc2ccsc2C(=O)OC)cc2sc(Cl)cc21 | > 55.7 µM (inactive) | 
CC(OC(=O)c1cccnc1SCc1cc(=O)n2ccccc2n1)c1ccccn1 (stereo not given) | > 55.7 µM (inactive) | 
O=C(Cc1cccs1)Nc1ccccn1 | > 55.7 µM (inactive) | 
COCCSc1ccccc1C(=O)NCCc1ccccc1 | > 55.7 µM (inactive) | 
CCC(CC)NC(=O)Cc1ccccc1[N+](=O)[O-] | > 55.7 µM (inactive) | 
O=C(c1cc[n+]([O-])cc1)N1CCc2c([nH]c3ccccc23)C1c1ccccc1Cl (stereo not given) | > 55.7 µM (inactive) | 
CCCc1cc(C(=O)Nc2cc(OC)c(Cl)cc2OC)no1 | > 55.7 µM (inactive) | 
COC(=O)NNC(=O)c1ccccc1OC | > 55.7 µM (inactive) | 
Cc1noc(/C=C/N(C)C)c1S(=O)(=O)N1CCc2ccccc21 | > 55.7 µM (inactive) | 
CC(=O)n1cc(Nc2ccc([N+](=O)[O-])cc2)c2ccccc21 | > 55.7 µM (inactive) | 
Cc1[nH]n(-c2ccccc2)c(=O)c1/C=C1/C=c2ccccc2=N1 | > 55.7 µM (inactive) | 
CCOC(=O)C1(CC2CCCCO2)CCN(Cc2cc3ccccc3[nH]2)CC1 (stereo not given) | > 55.7 µM (inactive) | 
c1ccc2c(c1)CCCN2c1nc2ccccc2n2cnnc12 | > 55.7 µM (inactive) | 
COc1ccc(S(=O)(=O)Nc2nc3ccccc3s2)cc1OC | > 55.7 µM (inactive) | 
CCC(=O)NCCSc1c[nH]c2ccccc12 | > 55.7 µM (inactive) | 
COC(=O)c1sccc1NC(=O)c1ccc(Br)s1 | > 55.7 µM (inactive) | 

SMILES | EC50 [1] | EC50
COc1ccccc1C(=O)NNC(=O)c1ccc(NC(=O)C(C)C)cc1 | > 55.7 µM (inactive) | 
Cc1c(C#N)c2ccccc2n1CC(=O)O | > 55.7 µM (inactive) | 
O=C(O)C(Cc1c[nH]c2ccccc12)N1Cc2ccccc2C1=O (stereo not given) | > 55.7 µM (inactive) | 
O=C(Nc1nnc(-c2ccccc2Cl)o1)c1nc2ccccc2s1 | > 55.7 µM (inactive) | 
COCCCNC(=O)c1cc2c(-c3ccc(Cl)cc3)nn(C)c2s1 | > 55.7 µM (inactive) | 
Cc1nc(/N=C(\N)Nc2ccccc2)nc2ccccc12 | > 55.7 µM (inactive) | 
CC(=O)NCCC(=O)N1CCc2c([nH]c3ccccc23)C1c1cccc(Cl)c1 (stereo not given) | > 55.7 µM (inactive) | 
COc1cc(NC(=O)c2cc(C(C)C)on2)c(OC)cc1Cl | > 55.7 µM (inactive) | 
CN(C)C(=O)COC(=O)/C=C/c1ccccc1[N+](=O)[O-] | > 55.7 µM (inactive) | 
O=C(CCN1CCOCC1)N1CCc2c([nH]c3ccccc23)C1c1cccc(Cl)c1 (stereo not given) | > 55.7 µM (inactive) | 
COc1ccc(C2c3[nH]c4ccccc4c3CCN2C(=O)c2cc3ncccn3n2)c(F)c1 (stereo not given) | > 55.7 µM (inactive) | 
COC(=O)c1n[nH]c2ccccc12 | > 55.7 µM (inactive) | 
CC1=NN(c2ccccc2)C(=O)/C1=C/c1c(O)[nH]c(=O)[nH]c1=O |  | > 55.7 µM (inactive)
Cc1cc(-c2ccc(Cl)cc2)c(C#N)c(N)n1 | > 55.7 µM (inactive) | 
CC(=O)N1N=C(c2ccccc2O)OC1(C)CC(=O)Nc1ccccc1 (stereo not given) | > 55.7 µM (inactive) | 
COc1ccccc1-c1nnc(SCC(=O)NC2CCCCC2)o1 | > 55.7 µM (inactive) | 
Cn1nc(-c2ccc(Cl)cc2)c2cc(C(=O)NCCCN3CCCC3)sc21 | 21.6 µM (inactive) | 
COCCNC(=O)C(=O)NNC(=O)c1ccccc1OC | > 55.7 µM (inactive) | 
Nc1nnc(Cc2c[nH]c3ccccc23)s1 | > 55.7 µM (inactive) | 
COc1ccc(NC(=O)N2CCn3c2nc2ccccc23)cc1 | > 55.7 µM (inactive) | 
O=C(CCCSc1nc2ccccc2s1)NCc1ccco1 | > 55.7 µM (inactive) | 
COc1ccc(Br)cc1C(=O)Nc1cccc(C)c1 | > 55.7 µM (inactive) | 
NC(=O)CSc1c[nH]c2ccccc12 | > 55.7 µM (inactive) | 
COc1cccc2sc(Nc3nnc(-c4ccc(F)cc4)o3)nc12 | > 55.7 µM (inactive) | 
CCN(CC)S(=O)(=O)c1ccc(-c2nnc3sc4cccc(C)c4n23)cc1 | > 55.7 µM (inactive) | 

SMILES | EC50 [1] | EC50
CC(C)CC(=O)NC(=S)Nc1nc(-c2ccccc2)cs1 | > 55.7 µM (inactive) | 
COCCCNc1nc2c(-c3cccc(C(F)(F)F)c3)nnn2c2ccccc12 | > 55.7 µM (inactive) | 
Cc1cc(C)n(-c2nnc3n2N=C(c2c[nH]c4ccccc24)CS3)n1 | > 55.7 µM (inactive) | 
COc1cccc(-c2nc(N3CCCCC3C)c3ccccc3n2)c1O (stereo not given) | > 55.7 µM (inactive) | 
CC(=O)Nc1c(Cl)n(C(C)=O)c2ccccc12 | > 55.7 µM (inactive) | 
O=C(COc1ccccc1Cl)Nc1cc(Cl)ccc1O | > 55.7 µM (inactive) | 
COc1cc(NC(=O)c2cc(C3CC3)on2)c(OC)cc1Cl | > 55.7 µM (inactive) | 
COC(=O)c1sccc1NC(=O)c1cc2c(s1)CCCC2 | > 55.7 µM (inactive) | 
CCc1cc2c(NCCC(=O)O)nc(C)nc2s1 | > 55.7 µM (inactive) | 
O=C(c1cccnc1)N1CCc2ccccc21 | > 55.7 µM (inactive) | 
O=C(CN1CCNCC1)Nc1ccc(Oc2ccccc2)cc1 | > 55.7 µM (inactive) | 
CCOc1ccccc1C1CC(c2cccs2)=NN1S(C)(=O)=O (stereo not given) | > 55.7 µM (inactive) | 
NNc1ncnc2sc3c(c12)CCC3 | > 55.7 µM (inactive) | 
COCc1cc(C)nc2sc(C(=O)NN)c(-n3cccc3)c12 | > 55.7 µM (inactive) | 
CCCNC(=O)Cn1c2ccccc2c2nc(=O)cc(C)n21 | > 55.7 µM (inactive) | 
CCOc1cc(-c2ccc(N)c(OCC)c2)ccc1N | > 55.7 µM (inactive) | 
O=C(Cc1c[nH]c2ccccc12)Nc1nnc(C2CC2)s1 | > 55.7 µM (inactive) | 
Cc1nn(-c2ccc(Cl)cc2)c(N)c1C(O)(CSc1nccn1C)C(F)(F)F (stereo not given) | > 55.7 µM (inactive) | 
Cc1nnc(NC(=O)c2oc3c(ccc4ccccc43)c2C)s1 | > 55.7 µM (inactive) | 
CN1CCN(C(=O)CNc2ccc(C(F)(F)F)cc2[N+](=O)[O-])CC1 | > 55.7 µM (inactive) | 
CC1Cc2ccccc2N1Cc1cc(=O)n2ccsc2n1 (stereo not given) | > 55.7 µM (inactive) | 
CN1C(=O)/C(=C\c2cc(Br)cs2)c2ccccc21 | > 55.7 µM (inactive) | 
CN1N=C(C(=O)N2CCc3c([nH]c4ccccc34)C2c2c(F)cccc2Cl)CCC1=O (stereo not given) | > 55.7 µM (inactive) | 
CCCSc1nnc(Sc2nnnn2-c2ccccc2)s1 | > 55.7 µM (inactive) | 
COCCNC(=O)c1cc2c(-c3ccc(Cl)cc3)nn(C)c2s1 | > 55.7 µM (inactive) | 

Source: PubChem BioAssay AID1406 (The Scripps Research Institute Molecular Screening Center, 2008)
